Earlier results, collected in US11154585B2, “Orodispersible film composition comprising enalapril for the treatment of hypertension in a pediatric population” (PHARMATHEN S.A., priority 2017, dated 2021).
Counter-ions that a name gives are not always drawn. Like-named read-outs stand apart in the source and are kept apart here.

Structure (SMILES): CCOC(=O)[C@H](CCc1ccccc1)N[C@@H](C)C(=O)N1CCC[C@H]1C(=O)O [Enalapril maleate]
- Solubility (alcohol): soluble
- Solubility (methanol and dimethylformamide): freely soluble
- Solubility (nonpolar organic solvents): practically insoluble
- Solubility (semi polar organic solvents): slightly soluble
- Solubility (water): sparingly soluble
